Twelve molecules from ChEMBL document CHEMBL1201862, “PubChem BioAssay data set” (2004) can be followed below.

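These data come from cells grown in 96-well plates and exposed to compound for 48 hours at five concentrations. GI50 is the concentration that inhibits growth by half.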 Calls of active or inactive are those of the source. Rule as the data show it: active = GI50 up to about 1.1 µM and inactive = higher.

Some test systems named below: 786-0; A549; COLO 205; EKVX; HOP-92; K562; MDA-MB-231; MDA-MB-435; NCI/ADR-RES; OVCAR-8; SF-268; SF-295; SK-MEL-28; SK-OV-3; TK-10; KM12; SF-539; SK-MEL-2; MDA-N; NCI-H522.
Test in all cases: DTP human tumour cell line panel, 48 h

By GI50 is commonly meant the concentration at which growth is held to half of that of the control. As to `Nn1nnc2ccccc21`, the GI50 with 786-0, with A549, in the assay on COLO 205, in the assay on EKVX, with HOP-92 and in the assay with K562 was > 100 µM (inactive) each time. For the same molecule, the GI50 with MDA-MB-231, with MDA-MB-435, in the assay on NCI/ADR-RES, in the assay on OVCAR-8, in the assay with SF-268 and in the assay with SF-295 was > 100 µM (inactive) each time. Further, the GI50 in the assay on SK-MEL-28, with SK-OV-3 and in the assay with TK-10 was > 100 µM (inactive) in each case.
As for `Cc1ccccc1N/C(=C(/C(Cl)=C(Cl)Cl)[N+](=O)[O-])n1nnc2ccccc21`, the GI50 is 34 µM (inactive) with 786-0; 41.7 µM (inactive) in the assay on A549; 15.7 µM (inactive) in the assay with COLO 205; 20.5 µM (inactive) with EKVX; 21.1 µM (inactive) in the assay with K562; 15.9 µM (inactive) in the assay with KM12. Further, the GI50 is 21.3 µM (inactive) in the assay with MDA-MB-231; 16.5 µM (inactive) in the assay on MDA-MB-435; 18.2 µM (inactive) in the assay with NCI/ADR-RES; 15.7 µM (inactive) in the assay on SF-268; 14.9 µM (inactive) in the assay on SF-295; 17.6 µM (inactive) in the assay on SF-539. Besides, the GI50 with SK-MEL-28 was 17 µM (inactive); in the assay on SK-MEL-2, 10.8 µM (inactive); in the assay with SK-OV-3 it was 15.3 µM (inactive).
Consider `CN(C(=O)c1cccs1)C(=S)N1CCN(c2ccccc2)CC1`, for which the GI50 in the assay with 786-0 is > 100 µM (inactive); in the assay on A549 it was > 100 µM (inactive); with COLO 205 it was > 100 µM (inactive); with HOP-92, 91.8 µM (inactive); in the assay with K562, > 100 µM (inactive); in the assay with KM12 it was > 100 µM (inactive). Further, the GI50 in the assay on MDA-MB-231, in the assay with MDA-MB-435, with MDA-N, in the assay on NCI-H522, with OVCAR-8 and in the assay with SF-268 was > 100 µM (inactive) each time. For the same molecule, the GI50 in the assay on SF-295, in the assay on SK-MEL-28, in the assay with SK-MEL-2 and with TK-10 was > 100 µM (inactive) in each case.
For the molecule `Cc1nc2c(o1)C(=O)c1ccccc1/C2=N\c1ccccc1`, the GI50 in the assay on 786-0 was 8.38 µM (inactive); with COLO 205 it was 13.9 µM (inactive); with EKVX, 5.78 µM (inactive); in the assay with HOP-92, 2.27 µM (inactive); with K562 it was 2.62 µM (inactive); in the assay on KM12, 6.07 µM (inactive). For the same molecule, the GI50 in the assay with MDA-MB-231 is 0.968 µM (active); with MDA-MB-435 it was 0.352 µM (active); in the assay on MDA-N it was 0.292 µM (active); in the assay with NCI-H522 it was 1.86 µM (inactive); in the assay on OVCAR-8, 2 µM (inactive); in the assay on SF-268, 4.01 µM (inactive). Besides, the GI50 was 4.53 µM (inactive) in the assay on SF-295; 2.9 µM (inactive) in the assay with SF-539; 2 µM (inactive) in the assay with SK-MEL-28; 1.46 µM (inactive) with SK-MEL-2; 17.4 µM (inactive) in the assay on SK-OV-3; 20.7 µM (inactive) in the assay on TK-10.
`O=C(Nc1ccc(Cl)cc1)c1cc2c(cc1Cl)SC(NNCCO)=NS2(=O)=O`: the GI50 is > 100 µM (inactive) in the assay with 786-0; 49.7 µM (inactive) in the assay with COLO 205; > 100 µM (inactive) with EKVX; 92.3 µM (inactive) in the assay with HOP-92; 27.9 µM (inactive) with K562; > 100 µM (inactive) with KM12. Moreover, the GI50 in the assay with MDA-MB-231, in the assay with MDA-MB-435, in the assay on NCI/ADR-RES, with OVCAR-8, in the assay with SF-268 and in the assay with SF-295 was > 100 µM (inactive) throughout. Besides, the GI50 with SF-539, with SK-MEL-28, with SK-MEL-2, in the assay on SK-OV-3 and with TK-10 was > 100 µM (inactive) each time.
As for `CCOC(=O)C[n+]1cccc(C2(c3cc4ccccc4[nH]3)OCCO2)c1`, the GI50 with 786-0, in the assay with A549, with COLO 205, in the assay with EKVX, in the assay with HOP-92 and in the assay on K562 was > 100 µM (inactive) in each case. The GI50 in the assay on KM12, with MDA-MB-231, in the assay on MDA-MB-435, in the assay with NCI/ADR-RES, in the assay with OVCAR-8 and with SF-268 was > 100 µM (inactive) in each case. In addition, the GI50 in the assay on SF-295, in the assay with SF-539, in the assay on SK-MEL-28, with SK-MEL-2, with SK-OV-3 and in the assay with TK-10 was > 100 µM (inactive) in each case.
`Cc1cc(C)c(C#N)c(SC(=S)NC(=O)c2ccc(Cl)cc2)n1`: the GI50 with 786-0, with A549, in the assay on COLO 205, with EKVX, with HOP-92 and with KM12 was > 100 µM (inactive) each time. Further, the GI50 with MDA-MB-231, with MDA-MB-435, in the assay on NCI/ADR-RES, in the assay with OVCAR-8, in the assay on SF-268 and with SF-295 was > 100 µM (inactive) throughout. Besides, the GI50 with SK-MEL-28, with SK-MEL-2, in the assay with SK-OV-3 and with TK-10 was > 100 µM (inactive) throughout.
Turning to `O=C1c2c(O)cccc2C(C(=O)CCCCC(=O)C2c3cccc(O)c3C(=O)c3c(O)cccc32)c2cccc(O)c21`, the GI50 is 2.24 µM (inactive) in the assay with 786-0; 0.483 µM (active) in the assay with A549; 0.759 µM (active) in the assay with COLO 205; 0.596 µM (active) with EKVX; 0.627 µM (active) in the assay with HOP-92; 0.661 µM (active) in the assay with K562. Also, the GI50 with KM12 is 0.607 µM (active); in the assay on MDA-MB-231, 0.426 µM (active); in the assay with MDA-MB-435 it was 0.809 µM (active); with MDA-N, 0.879 µM (active); with NCI-H522, 0.543 µM (active); with OVCAR-8, 0.733 µM (active). Further, the GI50 was 0.69 µM (active) in the assay on SF-268; 0.469 µM (active) in the assay on SF-295; 0.399 µM (active) in the assay on SF-539; 0.877 µM (active) with SK-MEL-28; 0.54 µM (active) in the assay with SK-MEL-2; 0.562 µM (active) in the assay on SK-OV-3. For the same molecule, the GI50 with TK-10 is 1.55 µM (inactive).
`O=C(Nc1c(Cl)cccc1Cl)c1c(Cl)c(Cl)c(Cl)c(Cl)c1-c1nc2ccccc2[nH]1`: the GI50 with 786-0 was 36.4 µM (inactive); with A549 it was 0.601 µM (active); in the assay with COLO 205 it was 42.8 µM (inactive); in the assay with EKVX, 9.48 µM (inactive); in the assay with HOP-92, 29.9 µM (inactive); with K562 it was 59.3 µM (inactive). The GI50 in the assay with KM12 was 0.155 µM (active); in the assay with MDA-MB-435, 38.2 µM (inactive); with MDA-N, 36 µM (inactive); in the assay on NCI-H522 it was 37 µM (inactive); in the assay on NCI/ADR-RES it was 51.1 µM (inactive); with OVCAR-8 it was 33 µM (inactive). Also, the GI50 in the assay with SF-268 was 63.7 µM (inactive); in the assay on SF-295 it was 0.0468 µM (active); with SF-539, 0.535 µM (active); in the assay on SK-MEL-28, 70.6 µM (inactive); in the assay with SK-MEL-2, > 100 µM (inactive); with SK-OV-3 it was 0.0507 µM (active).
Consider `O=[N+]([O-])c1c(Br)cc(Br)c2c1Nc1c(ccc(Cl)c1Cl)S2`, for which the GI50 is 9.18 µM (inactive) in the assay on 786-0; 20.2 µM (inactive) with A549; 11.9 µM (inactive) with COLO 205; 16.6 µM (inactive) with EKVX; 18.7 µM (inactive) in the assay with HOP-92; 3.45 µM (inactive) with K562. For the same molecule, the GI50 is 5.89 µM (inactive) with KM12; 13.2 µM (inactive) with MDA-MB-231; 15.5 µM (inactive) in the assay on MDA-MB-435; 6.53 µM (inactive) in the assay with NCI-H522; 29.5 µM (inactive) with NCI/ADR-RES; 2.79 µM (inactive) in the assay with OVCAR-8. The GI50 in the assay on SF-268 was 16.3 µM (inactive); with SF-295 it was 20.7 µM (inactive); with SF-539, 22.2 µM (inactive); with SK-MEL-28, 16.6 µM (inactive); in the assay with SK-MEL-2, 18.5 µM (inactive); in the assay on SK-OV-3 it was 19.6 µM (inactive). The GI50 with TK-10 was 22.5 µM (inactive).
As for `O=[N+]([O-])c1ccc2nnnn2c1`, the GI50 with 786-0 is 22.2 µM (inactive); in the assay on A549 it was 45.3 µM (inactive); with COLO 205 it was 23.9 µM (inactive); in the assay on EKVX, > 100 µM (inactive); in the assay with HOP-92, 96.6 µM (inactive); in the assay on K562 it was 3.18 µM (inactive). Also, the GI50 in the assay on KM12 is 23.1 µM (inactive); in the assay with MDA-MB-231, 10.8 µM (inactive); in the assay on MDA-MB-435, 11.5 µM (inactive); in the assay with NCI-H522, 3.39 µM (inactive); in the assay on NCI/ADR-RES, 25.5 µM (inactive); in the assay with OVCAR-8, 44.1 µM (inactive). In addition, the GI50 in the assay with SF-268 is 70.6 µM (inactive); in the assay with SF-295, 11.3 µM (inactive); in the assay with SF-539 it was 14.9 µM (inactive); in the assay with SK-MEL-28 it was 20.8 µM (inactive); in the assay on SK-MEL-2, 23.3 µM (inactive); with SK-OV-3, 42.6 µM (inactive). The GI50 in the assay with TK-10 is 48.3 µM (inactive).
As to `CCCC(=O)OC1=C(c2ccccc2)Sc2ccccc2-n2cccc21`, the GI50 in the assay on 786-0, in the assay with A549, with COLO 205, in the assay on EKVX, in the assay with HOP-92 and in the assay with K562 was > 10 µM (inactive) each time. For the same molecule, the GI50 with KM12 is > 10 µM (inactive); in the assay with MDA-MB-231, > 10 µM (inactive); with MDA-MB-435, 8.57 µM (inactive); in the assay on MDA-N it was > 10 µM (inactive); in the assay with OVCAR-8, > 10 µM (inactive); in the assay on SF-268, > 10 µM (inactive). Also, the GI50 in the assay on SF-295, in the assay with SK-MEL-28, with SK-OV-3 and with TK-10 was > 10 µM (inactive) each time.
